Experimental data from publication PMC3322975 (The Journal of Biological Chemistry, 2012).

Target: Kv7.2/7.3 M-channel (Homo sapiens, UniProt O43525+O43526)
Assay: single-channel recording, excised inside-out patch
Type: cell-based

Kv7.2/7.3 M-channel, sequence (O43526 whole entry): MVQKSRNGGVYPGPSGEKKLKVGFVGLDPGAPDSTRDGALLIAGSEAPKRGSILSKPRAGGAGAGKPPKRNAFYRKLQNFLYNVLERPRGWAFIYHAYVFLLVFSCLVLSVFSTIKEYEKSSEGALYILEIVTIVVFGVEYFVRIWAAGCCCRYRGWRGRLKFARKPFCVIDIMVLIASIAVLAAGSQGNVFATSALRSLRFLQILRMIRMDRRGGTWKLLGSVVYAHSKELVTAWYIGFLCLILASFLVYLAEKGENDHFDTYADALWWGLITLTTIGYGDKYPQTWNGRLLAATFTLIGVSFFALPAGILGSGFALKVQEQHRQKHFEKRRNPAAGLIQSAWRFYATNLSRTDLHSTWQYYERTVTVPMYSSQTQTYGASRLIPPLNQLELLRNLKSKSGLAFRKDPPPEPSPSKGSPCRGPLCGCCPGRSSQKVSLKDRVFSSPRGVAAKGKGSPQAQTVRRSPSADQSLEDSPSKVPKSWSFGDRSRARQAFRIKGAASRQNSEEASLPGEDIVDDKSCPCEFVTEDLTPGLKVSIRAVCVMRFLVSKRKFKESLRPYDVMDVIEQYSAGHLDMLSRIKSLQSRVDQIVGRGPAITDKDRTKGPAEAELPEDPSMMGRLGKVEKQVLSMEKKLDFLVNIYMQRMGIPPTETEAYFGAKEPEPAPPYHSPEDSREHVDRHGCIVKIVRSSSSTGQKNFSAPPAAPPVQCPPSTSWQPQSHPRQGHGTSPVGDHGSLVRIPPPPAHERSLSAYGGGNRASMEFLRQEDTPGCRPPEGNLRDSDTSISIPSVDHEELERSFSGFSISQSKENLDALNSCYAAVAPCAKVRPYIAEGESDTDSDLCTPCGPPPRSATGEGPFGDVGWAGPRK
Kv7.2/7.3 M-channel, sequence (O43525 whole entry): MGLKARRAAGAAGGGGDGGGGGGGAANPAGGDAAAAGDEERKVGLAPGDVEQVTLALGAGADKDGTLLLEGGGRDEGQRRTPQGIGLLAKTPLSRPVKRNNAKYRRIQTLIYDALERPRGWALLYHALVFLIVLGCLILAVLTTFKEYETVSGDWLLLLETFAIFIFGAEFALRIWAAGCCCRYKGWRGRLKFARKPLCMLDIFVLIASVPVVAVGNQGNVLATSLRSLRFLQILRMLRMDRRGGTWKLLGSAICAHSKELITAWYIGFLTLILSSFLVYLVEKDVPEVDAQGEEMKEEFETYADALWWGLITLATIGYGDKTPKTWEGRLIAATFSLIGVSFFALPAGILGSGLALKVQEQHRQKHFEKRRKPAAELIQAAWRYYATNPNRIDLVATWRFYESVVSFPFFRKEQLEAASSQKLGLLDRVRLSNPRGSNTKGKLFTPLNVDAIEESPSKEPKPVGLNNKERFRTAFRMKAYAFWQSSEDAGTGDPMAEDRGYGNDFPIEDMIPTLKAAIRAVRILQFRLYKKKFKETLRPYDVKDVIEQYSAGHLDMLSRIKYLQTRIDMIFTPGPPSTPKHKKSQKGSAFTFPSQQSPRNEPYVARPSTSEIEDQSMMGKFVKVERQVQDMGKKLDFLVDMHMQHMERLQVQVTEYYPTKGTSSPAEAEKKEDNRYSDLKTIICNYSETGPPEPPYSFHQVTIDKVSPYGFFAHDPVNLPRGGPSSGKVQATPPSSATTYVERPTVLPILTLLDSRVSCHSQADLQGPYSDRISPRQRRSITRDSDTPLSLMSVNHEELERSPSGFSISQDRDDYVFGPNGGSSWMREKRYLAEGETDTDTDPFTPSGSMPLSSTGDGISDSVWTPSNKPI

| Compound | EC50 [nM] |
| --- | --- |
| CCCCCCCCc1ccc(CCC(N)(CO)COP(=O)(O)O)cc1 (stereo not drawn) [FTY720-P] | 500 ± 1 |
| CCCCCCCCCCCCC/C=C/[C@@H](O)[C@@H](N)COP(=O)(O)O [S-1-P] | 3200 ± 600 |
| CCCCCCCC(=O)OC[C@H](COP(=O)(O)O[C@H]1[C@H](O)[C@@H](O)[C@H](OP(=O)(O)O)[C@@H](O)[C@H]1O)OC(=O)CCCCCCC [diC8PI(4)P] | 1700 ± 300 |
| CCCCCCCC/C=C\CCCCCCCC(=O)OC[C@@H](O)COP(=O)(O)O [LPA] | 1500 ± 400 |
| CCCCCCCC(=O)OC[C@H](COP(=O)(O)O[C@@H]1[C@H](O)[C@H](O)[C@@H](OP(=O)(O)O)[C@H](OP(=O)(O)O)[C@H]1O)OC(=O)CCCCCCC [diC8PI(4,5)P2] | 1100 ± 100 |
| CCCCCCCC(=O)OC[C@H](COP(=O)(O)O[C@H]1[C@H](O)[C@@H](OP(=O)(O)O)[C@H](OP(=O)(O)O)[C@@H](OP(=O)(O)O)[C@H]1O)OC(=O)CCCCCCC [diC8PI(3,4,5)P3] | 1100 ± 200 |
